ChEMBL document CHEMBL4507282, “Data for DCP probe BI-1950” (2021)

Columns and labels:
Conditions in all cases: Compound concentration 1000.0 nM
[1] = target: Dual specificity mitogen-activated protein kinase kinase 3 (Homo sapiens) (UniProt P46734)
[2] = target: Mitogen-activated protein kinase kinase kinase kinase 1 (Homo sapiens) (UniProt Q92918)
[3] = target: Serine/threonine-protein kinase 38 (Homo sapiens) (UniProt Q15208)
[4] = target: Serine/threonine-protein kinase D3 (Homo sapiens) (UniProt O94806)
Chain of Serine/threonine-protein kinase D3 (Homo sapiens) (O94806 whole entry): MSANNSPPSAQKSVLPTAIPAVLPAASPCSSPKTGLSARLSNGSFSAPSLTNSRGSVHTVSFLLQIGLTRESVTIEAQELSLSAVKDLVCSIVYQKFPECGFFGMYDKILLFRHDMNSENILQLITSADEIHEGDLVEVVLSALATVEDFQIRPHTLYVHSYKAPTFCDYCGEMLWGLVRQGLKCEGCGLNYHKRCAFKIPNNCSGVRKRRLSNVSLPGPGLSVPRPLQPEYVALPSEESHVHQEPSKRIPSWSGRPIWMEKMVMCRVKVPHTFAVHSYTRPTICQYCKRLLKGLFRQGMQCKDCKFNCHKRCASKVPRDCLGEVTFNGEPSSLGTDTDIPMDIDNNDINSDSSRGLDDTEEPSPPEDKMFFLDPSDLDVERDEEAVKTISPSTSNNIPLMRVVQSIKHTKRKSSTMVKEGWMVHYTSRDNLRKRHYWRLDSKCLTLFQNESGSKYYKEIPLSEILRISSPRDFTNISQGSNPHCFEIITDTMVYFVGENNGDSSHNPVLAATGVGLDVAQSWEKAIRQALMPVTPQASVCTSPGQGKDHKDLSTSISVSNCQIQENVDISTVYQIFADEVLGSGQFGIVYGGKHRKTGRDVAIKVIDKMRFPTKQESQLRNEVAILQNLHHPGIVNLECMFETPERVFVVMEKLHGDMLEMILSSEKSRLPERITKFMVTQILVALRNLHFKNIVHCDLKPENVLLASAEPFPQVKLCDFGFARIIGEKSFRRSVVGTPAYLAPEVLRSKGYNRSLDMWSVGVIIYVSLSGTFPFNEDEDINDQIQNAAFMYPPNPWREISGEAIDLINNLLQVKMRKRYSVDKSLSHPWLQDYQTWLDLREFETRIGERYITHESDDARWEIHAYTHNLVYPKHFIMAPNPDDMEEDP

[5] = target: Cyclin-dependent kinase 16 (Homo sapiens) (UniProt Q00536)
[6] = target: Serine/threonine-protein kinase VRK2 (Homo sapiens) (UniProt Q86Y07)
[7] = target: Platelet-derived growth factor receptor beta (Homo sapiens) (UniProt P09619)
[8] = system: ALK tyrosine kinase receptor (Homo sapiens), Q9UM73 [C1156Y]
[9] = target: Serine/threonine-protein kinase Sgk3 (Homo sapiens) (UniProt Q96BR1)
[10] = target: Serine/threonine-protein kinase Nek5 (Homo sapiens) (UniProt Q6P3R8)
[11] = system: Tyrosine-protein kinase ABL1 (Homo sapiens), P00519 [Q252H]
[12] = target: Mitogen-activated protein kinase kinase kinase 9 (Homo sapiens) (UniProt P80192)
[13] = target: Serine/threonine-protein kinase NLK (Homo sapiens) (UniProt Q9UBE8)
Chain of Serine/threonine-protein kinase NLK (Homo sapiens) (Q9UBE8 whole entry): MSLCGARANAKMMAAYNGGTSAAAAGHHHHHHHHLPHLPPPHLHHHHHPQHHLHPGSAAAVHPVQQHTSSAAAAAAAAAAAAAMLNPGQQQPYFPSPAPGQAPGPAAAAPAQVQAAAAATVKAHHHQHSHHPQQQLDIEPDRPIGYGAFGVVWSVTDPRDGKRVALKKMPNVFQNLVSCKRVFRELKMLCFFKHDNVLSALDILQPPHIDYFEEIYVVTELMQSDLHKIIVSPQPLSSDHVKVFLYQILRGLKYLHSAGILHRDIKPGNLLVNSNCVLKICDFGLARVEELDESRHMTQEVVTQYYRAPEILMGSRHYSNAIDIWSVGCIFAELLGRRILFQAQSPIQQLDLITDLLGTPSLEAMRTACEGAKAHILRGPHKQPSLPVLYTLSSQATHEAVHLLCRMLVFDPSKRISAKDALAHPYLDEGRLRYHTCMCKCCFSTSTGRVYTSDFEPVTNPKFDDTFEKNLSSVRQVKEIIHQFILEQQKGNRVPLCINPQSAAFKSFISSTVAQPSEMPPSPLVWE

[14] = target: Ribosomal protein S6 kinase alpha-6 (Homo sapiens) (UniProt Q9UK32)
[15] = system: Tyrosine-protein kinase ABL1 (Homo sapiens), P00519 [F317I]
[16] = target: Myosin light chain kinase family member 4 (Homo sapiens) (UniProt Q86YV6)
[17] = system: Receptor-type tyrosine-protein kinase FLT3 (Homo sapiens), P36888 [N841I]
[18] = system: Receptor-type tyrosine-protein kinase FLT3 (Homo sapiens), P36888 [D835Y]
[19] = target: Mitogen-activated protein kinase kinase kinase 12 (Homo sapiens) (UniProt Q12852)
[20] = system: Proto-oncogene tyrosine-protein kinase receptor Ret (Homo sapiens), P07949 [V804M]
Chain of Proto-oncogene tyrosine-protein kinase receptor Ret (Homo sapiens), P07949 [V804M] (P07949 whole entry V804M): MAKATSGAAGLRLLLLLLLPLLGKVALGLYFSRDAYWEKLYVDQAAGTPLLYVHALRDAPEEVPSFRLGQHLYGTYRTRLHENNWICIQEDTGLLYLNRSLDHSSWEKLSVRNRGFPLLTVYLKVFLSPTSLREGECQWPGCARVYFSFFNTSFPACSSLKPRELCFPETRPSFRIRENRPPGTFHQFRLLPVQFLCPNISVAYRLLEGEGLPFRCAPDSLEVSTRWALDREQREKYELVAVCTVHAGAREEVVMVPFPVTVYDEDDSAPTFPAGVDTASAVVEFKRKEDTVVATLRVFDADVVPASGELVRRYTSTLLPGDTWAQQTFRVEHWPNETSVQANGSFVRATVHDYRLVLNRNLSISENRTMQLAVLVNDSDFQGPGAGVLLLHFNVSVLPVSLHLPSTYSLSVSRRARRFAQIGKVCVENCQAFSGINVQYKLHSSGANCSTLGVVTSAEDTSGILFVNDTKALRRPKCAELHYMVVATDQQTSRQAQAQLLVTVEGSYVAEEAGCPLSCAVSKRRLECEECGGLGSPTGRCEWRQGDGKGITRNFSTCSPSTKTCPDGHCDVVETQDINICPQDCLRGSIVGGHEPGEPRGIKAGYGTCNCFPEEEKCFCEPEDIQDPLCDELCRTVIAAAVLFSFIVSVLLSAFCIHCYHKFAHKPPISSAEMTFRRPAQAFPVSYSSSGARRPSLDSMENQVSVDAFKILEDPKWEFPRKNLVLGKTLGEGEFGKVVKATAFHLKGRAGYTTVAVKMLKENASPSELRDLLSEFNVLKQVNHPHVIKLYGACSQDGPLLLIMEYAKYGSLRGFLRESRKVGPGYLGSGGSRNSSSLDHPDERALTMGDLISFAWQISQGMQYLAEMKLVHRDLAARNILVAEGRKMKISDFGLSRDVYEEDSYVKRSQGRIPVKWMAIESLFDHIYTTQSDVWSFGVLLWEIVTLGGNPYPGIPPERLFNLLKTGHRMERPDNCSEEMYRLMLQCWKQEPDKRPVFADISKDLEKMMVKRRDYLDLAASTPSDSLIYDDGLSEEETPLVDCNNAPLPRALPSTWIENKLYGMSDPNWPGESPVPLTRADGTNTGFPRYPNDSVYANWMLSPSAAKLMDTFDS

[21] = target: cAMP-dependent protein kinase catalytic subunit beta (Homo sapiens) (UniProt P22694)
[22] = target: Serine/threonine-protein kinase 36 (Homo sapiens) (UniProt Q9NRP7)
[23] = target: Serine/threonine-protein kinase 25 (Homo sapiens) (UniProt O00506)
[24] = target: Tyrosine-protein kinase Srms (Homo sapiens) (UniProt Q9H3Y6)
[25] = system: Phosphatidylinositol 4,5-bisphosphate 3-kinase catalytic subunit alpha isoform (Homo sapiens), P42336 [H1047L]
[26] = system: Phosphatidylinositol 4,5-bisphosphate 3-kinase catalytic subunit alpha isoform (Homo sapiens), P42336 [I800L]
Chain of Phosphatidylinositol 4,5-bisphosphate 3-kinase catalytic subunit alpha isoform (Homo sapiens), P42336 [I800L] (P42336 whole entry I800L, canonical isoform): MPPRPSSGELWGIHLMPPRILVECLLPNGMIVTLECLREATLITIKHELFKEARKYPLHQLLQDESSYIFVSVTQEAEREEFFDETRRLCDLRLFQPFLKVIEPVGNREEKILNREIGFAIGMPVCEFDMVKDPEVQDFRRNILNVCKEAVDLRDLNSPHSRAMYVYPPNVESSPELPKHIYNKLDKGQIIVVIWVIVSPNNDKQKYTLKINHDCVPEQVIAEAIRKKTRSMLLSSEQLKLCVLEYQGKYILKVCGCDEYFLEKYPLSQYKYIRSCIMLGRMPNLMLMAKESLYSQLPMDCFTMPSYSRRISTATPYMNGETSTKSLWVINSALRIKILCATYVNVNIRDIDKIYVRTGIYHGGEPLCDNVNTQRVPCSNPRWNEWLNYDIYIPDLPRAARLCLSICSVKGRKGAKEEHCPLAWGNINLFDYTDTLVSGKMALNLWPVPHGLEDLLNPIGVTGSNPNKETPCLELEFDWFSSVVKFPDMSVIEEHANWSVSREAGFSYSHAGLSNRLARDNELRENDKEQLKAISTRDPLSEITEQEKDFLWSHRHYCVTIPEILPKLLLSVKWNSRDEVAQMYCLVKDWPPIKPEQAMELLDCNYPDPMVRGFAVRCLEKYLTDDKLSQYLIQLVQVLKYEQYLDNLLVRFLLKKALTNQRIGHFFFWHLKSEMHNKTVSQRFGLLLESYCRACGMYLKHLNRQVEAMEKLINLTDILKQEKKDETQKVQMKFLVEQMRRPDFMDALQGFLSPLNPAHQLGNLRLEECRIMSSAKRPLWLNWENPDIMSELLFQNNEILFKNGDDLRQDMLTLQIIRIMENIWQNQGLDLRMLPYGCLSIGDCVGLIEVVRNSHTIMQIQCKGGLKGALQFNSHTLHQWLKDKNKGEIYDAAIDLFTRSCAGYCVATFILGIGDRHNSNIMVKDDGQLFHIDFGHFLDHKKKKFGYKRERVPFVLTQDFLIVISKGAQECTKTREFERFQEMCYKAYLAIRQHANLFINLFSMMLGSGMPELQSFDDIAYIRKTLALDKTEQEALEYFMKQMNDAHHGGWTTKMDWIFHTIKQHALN

[27] = target: Mitogen-activated protein kinase kinase kinase 20 (Homo sapiens) (UniProt Q9NYL2)
[28] = target: Mitogen-activated protein kinase 10 (Homo sapiens) (UniProt P53779)
Chain of Mitogen-activated protein kinase 10 (Homo sapiens) (P53779 whole entry): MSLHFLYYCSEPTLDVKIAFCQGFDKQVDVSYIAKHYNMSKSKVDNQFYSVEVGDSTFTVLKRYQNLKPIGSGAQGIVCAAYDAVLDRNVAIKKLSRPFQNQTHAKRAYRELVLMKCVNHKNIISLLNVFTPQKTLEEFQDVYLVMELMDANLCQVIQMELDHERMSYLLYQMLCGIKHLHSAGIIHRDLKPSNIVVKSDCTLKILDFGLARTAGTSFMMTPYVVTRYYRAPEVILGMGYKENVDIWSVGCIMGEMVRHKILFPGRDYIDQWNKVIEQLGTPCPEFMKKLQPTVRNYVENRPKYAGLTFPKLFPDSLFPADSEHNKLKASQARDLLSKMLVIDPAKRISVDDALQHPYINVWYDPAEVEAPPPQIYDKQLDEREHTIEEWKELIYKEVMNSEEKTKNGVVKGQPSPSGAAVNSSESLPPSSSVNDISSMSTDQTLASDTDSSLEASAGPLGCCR

[29] = target: Mitogen-activated protein kinase 9 (Homo sapiens) (UniProt P45984)
[30] = target: Dual specificity mitogen-activated protein kinase kinase 5 (Homo sapiens) (UniProt Q13163)
[31] = target: Rho-associated protein kinase 1 (Homo sapiens) (UniProt Q13464)
[32] = target: Transient receptor potential cation channel subfamily M member 6 (Homo sapiens) (UniProt Q9BX84)
[33] = system: Phosphatidylinositol 4,5-bisphosphate 3-kinase catalytic subunit alpha isoform (Homo sapiens), P42336 [M1043I]
[34] = target: Cyclin-dependent kinase 18 (Homo sapiens) (UniProt Q07002)
[35] = target: Mitogen-activated protein kinase kinase kinase 11 (Homo sapiens) (UniProt Q16584)
[36] = target: Ephrin type-B receptor 1 (Homo sapiens) (UniProt P54762)
[37] = target: Mitogen-activated protein kinase 4 (Homo sapiens) (UniProt P31152)
[38] = target: Mitogen-activated protein kinase kinase kinase 14 (Homo sapiens) (UniProt Q99558)
[39] = target: Bone morphogenetic protein receptor type-1A (Homo sapiens) (UniProt P36894)
Chain of Bone morphogenetic protein receptor type-1A (Homo sapiens) (P36894 whole entry): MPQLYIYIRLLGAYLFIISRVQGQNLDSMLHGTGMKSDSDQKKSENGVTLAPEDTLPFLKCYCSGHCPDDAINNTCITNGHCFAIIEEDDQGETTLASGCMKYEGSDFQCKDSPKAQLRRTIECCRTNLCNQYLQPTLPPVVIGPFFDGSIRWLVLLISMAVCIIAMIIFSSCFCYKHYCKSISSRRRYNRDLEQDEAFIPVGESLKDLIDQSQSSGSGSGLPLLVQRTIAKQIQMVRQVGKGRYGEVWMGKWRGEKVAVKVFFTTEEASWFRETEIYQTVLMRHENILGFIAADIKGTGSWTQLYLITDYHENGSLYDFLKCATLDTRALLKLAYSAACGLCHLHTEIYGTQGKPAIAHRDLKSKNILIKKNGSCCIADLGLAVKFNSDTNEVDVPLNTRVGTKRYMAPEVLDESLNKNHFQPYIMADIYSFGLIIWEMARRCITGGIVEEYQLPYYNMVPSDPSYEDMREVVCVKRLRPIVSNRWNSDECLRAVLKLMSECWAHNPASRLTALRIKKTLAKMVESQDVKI

[40] = target: Angiopoietin-1 receptor (Homo sapiens) (UniProt Q02763)
[41] = target: Cyclin-dependent kinase 4 (Homo sapiens) (UniProt P11802)
[42] = target: Mast/stem cell growth factor receptor Kit (Homo sapiens) (UniProt P10721)
[43] = target: TRAF2 and NCK-interacting protein kinase (Homo sapiens) (UniProt Q9UKE5)
[44] = target: Insulin receptor (Homo sapiens) (UniProt P06213)
[45] = target: Serine/threonine-protein kinase pim-3 (Homo sapiens) (UniProt Q86V86)

Chain of Dual specificity mitogen-activated protein kinase kinase 3 (Homo sapiens) (P46734 whole entry): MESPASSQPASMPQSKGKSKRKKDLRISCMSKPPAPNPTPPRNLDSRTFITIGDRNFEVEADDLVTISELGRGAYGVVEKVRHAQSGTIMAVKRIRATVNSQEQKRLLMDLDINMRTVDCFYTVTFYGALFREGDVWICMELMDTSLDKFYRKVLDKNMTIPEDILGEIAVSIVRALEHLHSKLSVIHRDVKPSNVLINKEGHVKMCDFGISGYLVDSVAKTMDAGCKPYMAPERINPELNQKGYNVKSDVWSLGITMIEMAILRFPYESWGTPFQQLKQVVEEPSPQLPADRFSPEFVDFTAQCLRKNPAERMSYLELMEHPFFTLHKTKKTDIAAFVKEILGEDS

C[C@H](NC(=O)c1cnc2n1[C@](C)(Cc1ccc(C#N)cc1)C(=O)N2c1cc(Cl)c(F)c(Cl)c1)C(=O)NC1(c2ccccn2)CC1 [BI 1950]
residual activity [1]: 80% | residual activity [2]: 100% | residual activity [3]: 96% | residual activity [4]: 100% | residual activity [5]: 100% | residual activity [6]: 100% | residual activity [7]: 91% | residual activity [8]: 100% | residual activity [9]: 100% | residual activity [10]: 100% | residual activity [11]: 100% | residual activity [12]: 100% | residual activity [13]: 100% | residual activity [14]: 91% | residual activity [15]: 100% | residual activity [16]: 100% | residual activity [17]: 78% | residual activity [18]: 100% | residual activity [19]: 100% | residual activity [20]: 100% | residual activity [21]: 75% | residual activity [22]: 100% | residual activity [23]: 100% | residual activity [24]: 100% | residual activity [25]: 81% | residual activity [26]: 100% | residual activity [27]: 100% | residual activity [28]: 91% | residual activity [29]: 92% | residual activity [30]: 100% | residual activity [31]: 100% | residual activity [32]: 100% | residual activity [33]: 100% | residual activity [34]: 100% | residual activity [35]: 100% | residual activity [36]: 85% | residual activity [37]: 100% | residual activity [38]: 100% | residual activity [39]: 98% | residual activity [40]: 91% | residual activity [41]: 100% | residual activity [42]: 91% | residual activity [43]: 100% | residual activity [44]: 100% | residual activity [45]: 100%

C[C@@]1(Cc2ccc(C#N)cc2)C(=O)N(c2cc(Cl)cc(Cl)c2)c2ncc(C(=O)NC3(c4nc(C5CCC5)no4)CC3)n21 [BI 9446]
residual activity [1]: 89% | residual activity [2]: 100% | residual activity [3]: 100% | residual activity [4]: 87% | residual activity [5]: 97% | residual activity [6]: 100% | residual activity [7]: 100% | residual activity [8]: 100% | residual activity [9]: 100% | residual activity [10]: 100% | residual activity [11]: 100% | residual activity [12]: 100% | residual activity [13]: 100% | residual activity [14]: 100% | residual activity [15]: 94% | residual activity [16]: 100% | residual activity [17]: 89% | residual activity [18]: 100% | residual activity [19]: 100% | residual activity [20]: 100% | residual activity [21]: 100% | residual activity [22]: 100% | residual activity [23]: 100% | residual activity [24]: 100% | residual activity [25]: 96% | residual activity [26]: 88% | residual activity [27]: 100% | residual activity [28]: 100% | residual activity [29]: 100% | residual activity [30]: 100% | residual activity [31]: 100% | residual activity [32]: 0% | residual activity [33]: 100% | residual activity [34]: 100% | residual activity [35]: 100% | residual activity [36]: 87% | residual activity [37]: 100% | residual activity [38]: 100% | residual activity [39]: 100% | residual activity [40]: 92% | residual activity [41]: 100% | residual activity [42]: 98% | residual activity [43]: 100% | residual activity [44]: 89% | residual activity [45]: 100%
